Assay results: patent US7348317B2, “Aqueous compositions containing metronidazole” (Dow Pharmaceutical Sciences, priority 2001, dated 2008)

Assays:
Format in all cases: physicochemical
[1] = Physical stability of BCD solutions in gel vehicle stored at 5° C.; conditions: for Results after storage at 5° C.: monitored weekly for two weeks
Method: Different solutions according to Table 1 were made with varying concentrations of beta-cyclodextrin (BCD). The solutions of BCD were maintained at 5° C. monitored weekly for two weeks for signs of crystal or precipitate formation.

[2] = Physical stability of 1% metronidazole solutions with 0.5% niacin and varying BCD at 5° C.; conditions: for Results, 5° C., 1 week: MTZ 1.0 % w/w, niacin 0.5 % w/w, pH 5.0+/−0.15
Method: The solutions were maintained at 5° C. for one week to observe for crystal or precipitate formation.

[3] = Physical stability of 1.0% metronidazole gel solutions with BCD and niacinamide at 5° C.; conditions: Metronidazole 1.0 % w/w
Method: Various gel solutions of Table 1 were prepared with a concentration of 1.0% metronidazole and containing either 0.5% or 1.0% BCD and differing concentrations of niacinamide. The gels were maintained at 5° C. for one week to observe for precipitate or crystal formation.

[4] = Physical stability / stable solubility of metronidazole in gel vehicle containing 0.5% BCD at 5° C.; conditions: for Result at 5° C., 1 week: BCD 0.5 % w/w, gel vehicle
Method: Different concentrations of metronidazole were prepared with the gel vehicle of Example 1 containing 0.5% BCD. The metronidazole (MTZ)/BCD solutions were maintained at 5° C. for one week.

[5] = Physical stability of 1.0% metronidazole gel solutions with niacin at 5° C.; conditions: MTZ 1.0 % w/w, pH 5.0+/−0.15, gel
Method: The pH was adjusted to 5.0+/−0.15 with trolamine. The solutions were maintained at 5° C. for one week to observe evidence of precipitation or crystal formation.

[6] = Physical stability of 1.0% metronidazole gel solutions with BCD and niacinamide at 5° C.
[7] = BCD at its maximum soluble aqueous concentration (0.5%), 5° C.

OC[C@H]1O[C@@H]2O[C@H]3[C@H](O)[C@@H](O)[C@@H](O[C@H]4[C@H](O)[C@@H](O)[C@@H](O[C@H]5[C@H](O)[C@@H](O)[C@@H](O[C@H]6[C@H](O)[C@@H](O)[C@@H](O[C@H]7[C@H](O)[C@@H](O)[C@@H](O[C@H]8[C@H](O)[C@@H](O)[C@@H](O[C@H]1[C@H](O)[C@H]2O)O[C@@H]8CO)O[C@@H]7CO)O[C@@H]6CO)O[C@@H]5CO)O[C@@H]4CO)O[C@@H]3CO [BCD, beta-cyclodextrin]
saturated BCD solubility in the aqueous solutions ([1]; 5° C., aqueous solution such as gel): about 0.5%
Results after storage at 5° C. ([1]; BCD 0.5 % w/w in gel vehicle of Table 1): Clear after 2 weeks
Results after storage at 5° C. ([1]; BCD 0.6 % w/w in gel vehicle of Table 1): Crystals formed after 2 weeks
Results after storage at 5° C. ([1]; BCD 0.7 % w/w in gel vehicle of Table 1): Crystals at one week
Results after storage at 5° C. ([1]; BCD 0.9 % w/w in gel vehicle of Table 1): Crystals at one week
Results after storage at 5° C. ([1]; BCD 1.0 % w/w in gel vehicle of Table 1): Crystals at one week
Results after storage at 5° C. ([1]; BCD 1.2 % w/w in gel vehicle of Table 1): Crystals at one week
Results after storage at 5° C. ([1]; BCD 1.4 % w/w in gel vehicle of Table 1): Crystals at one week
Results after storage at 5° C. ([1]; BCD 1.5 % w/w in gel vehicle of Table 1): Crystals at one week

Cc1ncc([N+](=O)[O-])n1CCO [MTZ, 1-(2-hydroxyethyl)-2-methyl-5-nitroimidazole]
solubility of MTZ with niacin and BCD combined ([2]; 0.5% niacin combined with 0.5% BCD, pH of about 5): 1%
Results, 5° C., 1 week ([2]; BCD 0.2 % w/w): Crystals formed
Results, 5° C., 1 week ([2]; BCD 0.3 % w/w): Crystals formed
Results, 5° C., 1 week ([2]; BCD 0.5 % w/w): Clear
Results at 5° C., 1 week ([3]; BCD 0.5 % w/w, niacinamide 0.5 % w/w): Crystals formed
Results at 5° C., 1 week ([3]; BCD 0.5 % w/w, niacinamide 1.0 % w/w): Clear
Results at 5° C., 1 week ([3]; BCD 0.5 % w/w, niacinamide 2.0 % w/w): Clear
Results at 5° C., 1 week ([3]; BCD 1.0 % w/w, niacinamide 0.5 % w/w): Precipitate formed
Results at 5° C., 1 week ([3]; BCD 1.0 % w/w, niacinamide 1.0 % w/w): Clear
Results at 5° C., 1 week ([3]; BCD 1.0 % w/w, niacinamide 2.0 % w/w): Clear
increase of stable solubility of MTZ by BCD [4, 7]: 0.1%
stable solubility of MTZ in aqueous solution with BCD [4, 7]: 0.8%
Result at 5° C., 1 week ([4]; MTZ 0.7 % w/w): Clear
Result at 5° C., 1 week ([4]; MTZ 0.8 % w/w): Clear
Result at 5° C., 1 week ([4]; MTZ 0.9 % w/w): Crystals formed
stable solubility of MTZ in aqueous solution, unaided ([4]; aqueous solution such as a gel, 5° C., without solubility enhancer): 0.7%
stable solubility of metronidazole in the gel vehicle ([4]; gel vehicle containing 0.5% BCD, 5° C.): about 0.8 % w/w
Results, 5° C., 1 week ([5]; niacin 0.10 % w/w): Crystals formed
Results, 5° C., 1 week ([5]; niacin 0.15 % w/w): Crystals formed
Results, 5° C., 1 week ([5]; niacin 0.25 % w/w): Crystals formed
Results, 5° C., 1 week ([5]; niacin 0.5 % w/w, seven out of eight samples showed crystal formation): Clear/Crystals formed*
Results, 5° C., 1 week ([5]; niacin 1.0 % w/w): Clear
Results, 5° C., 1 week ([5]; niacin 1.2 % w/w): Clear
Results, 5° C., 1 week ([5]; niacin 1.5 % w/w): Clear
Results, 5° C., 1 week ([5]; niacin 1.8 % w/w): Clear
Results, 5° C., 1 week ([5]; niacin 2.0 % w/w): Clear
Results, 5° C., 1 week ([5]; niacin […] w/w): Clear
MTZ aqueous solubility with niacinamide [6]: 1%
increase of MTZ aqueous solubility by niacinamide ([6]; 3% concentration of niacinamide): 0.3%
solubility of MTZ above its unaided solubility with BCD and niacinamide combined ([6]; BCD at amount expected to yield 0.1% increase plus niacinamide at one third of the amount that raises solubility by 0.3%): 0.3%

NC(=O)c1cccnc1 [niacinamide]
concentration of niacinamide required to obtain a stable aqueous gel solution of 1.0% metronidazole ([6]; niacinamide alone, no BCD): about 3%
